Test results reported in patent publication US20090143279A1 (priority 2007, published 2009).
Read-outs that look alike come from different tables or passages of the source.

Key:
reactive oxygen species = type: cell-based, mouse; settings: for ROS (composite Z-score): normalized score vs mock-treated (DMSO) wells
[1] = system: mitochondrial membrane potential; type: cell-based, mouse; settings: for ΔΨm (composite Z-score): normalized score vs mock-treated (DMSO) wells
cytochrome c = type: cell-based, mouse; settings: for cyt c (composite Z-score): normalized score vs mock-treated (DMSO) wells
nuOXPHOS transcripts = type: cell-based, mouse; settings: for nucOX (composite Z-score): normalized score vs mock-treated (DMSO) wells
mtOXPHOS transcripts = type: cell-based, mouse; settings: for mitoOX (composite Z-score): normalized score vs mock-treated (DMSO) wells
OXPHOS gene expression = type: cell-based, mouse; settings: for GE-HTS (composite Z-score): normalized score vs mock-treated (DMSO) wells
[2] = system: cellular dehydrogenase activity; settings: for MTT (composite Z-score): normalized score vs mock-treated (DMSO) wells
C2C12 myotubes = settings: for Viability (composite Z-score): normalized score vs mock-treated (DMSO) wells
[3] = composite Z-score vs DMSO, Conc 20 μM
[4] = composite Z-score vs mock-treated (DMSO) wells, Conc 20 μM
[5] = Table 4, C2C12 myotubes, 48 h, composite Z-score
[6] = Table 4, C2C12 myotubes, 48 h, JC-1, composite Z-score
[7] = composite Z-score vs DMSO wells, Conc 20 μM
[8] = normalized composite Z-score vs mock-treated (DMSO) wells, Conc 20 μM
[9] = 20 μM, composite Z-score vs DMSO
[10] = composite Z-score vs mock-treated (DMSO) wells, concentration of each compound in μM

Which ROS (reactive oxygen species; [3]) does the source give for `CC1(C)S[C@@H]2[C@H](N3C(=O)[C@@H](c4ccccc4)NC3(C)C)C(=O)N2[C@H]1C(=O)O` [hetacillin] here?
The ROS was 1.132.

And the ΔΨm [1, 3]?
The ΔΨm was −0.787.

And the cyt c (cytochrome c; [3])?
Its cyt c is 0.731.

What about the nucOX (nuOXPHOS transcripts; [3]) of the same compound?
Its nucOX is −0.094.

What about the mitoOX (mtOXPHOS transcripts; [3]) of the same compound?
The mitoOX was −0.302.

What about the GE-HTS (OXPHOS gene expression; [3]) of the same compound?
The GE-HTS was −0.200.

And the MTT [2, 3]?
The MTT was −0.663.

And the Viability (C2C12 myotubes; [3])?
The Viability was −0.642.

Which results are given for `COc1cc(O)c2c(=O)cc(C)oc2c1CC=C(C)C` [heteropeucenin, methyl ether]?
ROS (reactive oxygen species; [4]): 0.256; ΔΨm [1, 4]: 0.886; cyt c (cytochrome c; [4]): 0.416; nucOX (nuOXPHOS transcripts; [4]): 0.328; mitoOX (mtOXPHOS transcripts; [4]): 0.217; GE-HTS (OXPHOS gene expression; [4]): 0.299; MTT [2, 4]: −1.476; Viability (C2C12 myotubes; [4]): −0.034

For `CCC(C)C(OC(C)=O)C(=O)O[C@H]1[C@H](O)[C@@H]2[C@@]3(C)C=CC(=O)C(C)(C)[C@@H]3C[C@@H](OC(=O)C(O)C(C)C)[C@@]2(C)[C@@]23O[C@@H]2C[C@@H](c2ccoc2)[C@]13C` (stereo partly shown) [heudelottin C, reference compound], which “ROS (composite Z-score)” value (reactive oxygen species; Conc 20 μM) is on record?
The value was 0.576.

What about the ROS (reactive oxygen species; [5]) of the same compound?
The ROS was 0.576.

And the “ΔΨm (composite Z-score)” value ([1]; Conc 20 μM)?
The value was 0.373.

And the ΔΨm [1, 6]?
The ΔΨm was 0.373.

And the “cyt c (composite Z-score)” value (cytochrome c; Conc 20 μM)?
Its value is 0.156.

What about the “nucOX (composite Z-score)” value (nuOXPHOS transcripts; Conc 20 μM) of the same compound?
Its value is −0.245.

And the “mitoOX (composite Z-score)” value (mtOXPHOS transcripts; Conc 20 μM)?
Its value is −1.006.

And the “GE-HTS (composite Z-score)” value (OXPHOS gene expression; Conc 20 μM)?
The value was −0.524.

What about the “MTT (composite Z-score)” value ([2]; Conc 20 μM) of the same compound?
The value was −0.393.

And the MTT [2, 5]?
Its MTT is −0.393.

And the “Viability (composite Z-score)” value (C2C12 myotubes; Conc 20 μM)?
The value was −0.829.

And the Viability (C2C12 myotubes; [5])?
Its Viability is −0.829.

What does the source list for `Oc1c(Cl)cc(Cl)c(Cl)c1Cc1c(O)c(Cl)cc(Cl)c1Cl` [hexachlorophene]?
ROS (reactive oxygen species; [7]): −3.378; ΔΨm [1, 7]: −2.559; cyt c (cytochrome c; [7]): −2.828; nucOX (nuOXPHOS transcripts; [7]): −1.371; mitoOX (mtOXPHOS transcripts; [7]): −4.169; GE-HTS (OXPHOS gene expression; [7]): −2.471; MTT [2, 7]: −1.203; Viability (C2C12 myotubes; [7]): −3.480

Which results are given for `C[N+](C)(C)CCCCCC[N+](C)(C)C` [hexamethonium bromide]?
ROS (reactive oxygen species; [7]): 0.176; ΔΨm [1, 7]: −0.602; cyt c (cytochrome c): −0.284; cyt c (cytochrome c; [7]): 0.087; nucOX (nuOXPHOS transcripts; [7]): −0.806; mitoOX (mtOXPHOS transcripts; [7]): −0.442; GE-HTS (OXPHOS gene expression; [7]): −0.735; MTT [2, 7]: −1.179; Viability (C2C12 myotubes; [7]): −0.378

What does the source list for `O=c1cc(-c2cc(O)c(O)c(O)c2)oc2cc(O)cc(O)c12` [hieracin, reference compound]?
ROS (composite Z-score) (reactive oxygen species; Conc 20 μM): −0.329; ROS (reactive oxygen species; [5]): −0.329; ΔΨm (composite Z-score) ([1]; Conc 20 μM): −1.902; ΔΨm [1, 6]: −1.902; cyt c (composite Z-score) (cytochrome c; Conc 20 μM): 0.057; nucOX (composite Z-score) (nuOXPHOS transcripts; Conc 20 μM): −0.421; mitoOX (composite Z-score) (mtOXPHOS transcripts; Conc 20 μM): −1.009; GE-HTS (composite Z-score) (OXPHOS gene expression; Conc 20 μM): −0.648; MTT (composite Z-score) ([2]; Conc 20 μM): −0.557; MTT [2, 5]: −0.557; Viability (composite Z-score) (C2C12 myotubes; Conc 20 μM): 1.425; Viability (C2C12 myotubes; [5]): 1.425

`COc1ccc2c(c1)O[C@H]1c3ccc(OC)cc3OC[C@@H]21` [homopterocarpin] was tested. Which ROS (reactive oxygen species; [8]) did it give?
The ROS was −0.616.

What about the ΔΨm [1, 8] of the same compound?
Its ΔΨm is −0.306.

What about the cyt c (cytochrome c; [8]) of the same compound?
Its cyt c is 0.575.

And the nucOX (nuOXPHOS transcripts; [8])?
Its nucOX is −0.713.

What about the mitoOX (mtOXPHOS transcripts; [8]) of the same compound?
Its mitoOX is −1.126.

And the GE-HTS (OXPHOS gene expression; [8])?
The GE-HTS was −0.918.

What about the MTT [2, 8] of the same compound?
The MTT was −0.578.

And the Viability (C2C12 myotubes; [8])?
Its Viability is 0.549.

How did the ROS (reactive oxygen species; [8]) turn out when `C/C1=C\CC/C(C)=C/CC(C)(C)/C=C/C1` [humulene] was run?
The ROS was 0.679.

And the ΔΨm [1, 8]?
Its ΔΨm is −0.232.

What about the cyt c (cytochrome c; [8]) of the same compound?
The cyt c was −0.100.

What about the nucOX (nuOXPHOS transcripts; [8]) of the same compound?
The nucOX was −0.188.

And the mitoOX (mtOXPHOS transcripts; [8])?
The mitoOX was 0.060.

And the GE-HTS (OXPHOS gene expression; [8])?
Its GE-HTS is −0.096.

What about the MTT [2, 8] of the same compound?
Its MTT is −1.208.

What about the Viability (C2C12 myotubes; [8]) of the same compound?
The Viability was −0.070.

How did the ROS (reactive oxygen species; [9]) turn out when `CCCC(=O)O[C@]1(C(=O)CO)CC[C@H]2[C@@H]3CCC4=CC(=O)CC[C@]4(C)[C@H]3[C@@H](O)C[C@@]21C` [hydrocortisone butyrate] was run?
The ROS was 1.234.

What about the ΔΨm [1, 9] of the same compound?
Its ΔΨm is −0.808.

What about the cyt c (cytochrome c; [9]) of the same compound?
Its cyt c is −0.064.

And the nucOX (nuOXPHOS transcripts; [9])?
Its nucOX is 0.514.

What about the mitoOX (mtOXPHOS transcripts; [9]) of the same compound?
Its mitoOX is 0.916.

What about the GE-HTS (OXPHOS gene expression; [9]) of the same compound?
Its GE-HTS is 0.666.

What about the MTT [2, 9] of the same compound?
Its MTT is −0.932.

What about the Viability (C2C12 myotubes; [9]) of the same compound?
Its Viability is −1.654.

For `C[C@@H]1CC[C@@]2(OC1)O[C@H]1C[C@H]3[C@@H]4CC[C@H]5C[C@@H](O)CC[C@]5(C)C4=CC[C@]3(C)[C@H]1[C@@H]2C` [hydroxy (3beta)isoallospirost-9 (11)-ene], which ROS (reactive oxygen species; [8]) is on record?
Its ROS is 0.244.

And the ΔΨm [1, 8]?
Its ΔΨm is −0.423.

And the cyt c (cytochrome c; [8])?
Its cyt c is −0.048.

What about the nucOX (nuOXPHOS transcripts; [8]) of the same compound?
The nucOX was −0.619.

And the mitoOX (mtOXPHOS transcripts; [8])?
Its mitoOX is −0.081.

And the GE-HTS (OXPHOS gene expression; [8])?
Its GE-HTS is −0.457.

What about the MTT [2, 8] of the same compound?
Its MTT is −1.944.

And the Viability (C2C12 myotubes; [8])?
The Viability was 0.035.

Which results are given for `CN[C@H]1C[C@@H](N)[C@H](O)[C@@H](O[C@@H]2O[C@H](CO)[C@H](O)[C@@H]3OC4(O[C@H]23)O[C@H]([C@@H](N)CO)[C@H](O)[C@H](O)[C@H]4O)[C@@H]1O` (stereo partly shown) [hygromycin B]?
ROS (reactive oxygen species; [10]): 0.707; ΔΨm [1, 10]: −0.752; cyt c (cytochrome c; [10]): −0.478; nucOX (nuOXPHOS transcripts; [10]): 0.800; mitoOX (mtOXPHOS transcripts; [10]): −0.054; GE-HTS (OXPHOS gene expression; [10]): 0.558; MTT [2, 10]: −2.041; Viability (C2C12 myotubes; [10]): −1.526
